Experimental findings from patent US10759751B2, “Substituted spirocyclohexanes as muscarinic M1 receptor and/or M4 receptor agonists” (Heptares Therapeutics Limited, priority 2016, dated 2020) are described below.

Holding throughout (format): cell-based
In test [1] the target is T1, human muscarinic M1 receptor (Homo sapiens, UniProt P11229).
T1 sequence (P11229 1-460): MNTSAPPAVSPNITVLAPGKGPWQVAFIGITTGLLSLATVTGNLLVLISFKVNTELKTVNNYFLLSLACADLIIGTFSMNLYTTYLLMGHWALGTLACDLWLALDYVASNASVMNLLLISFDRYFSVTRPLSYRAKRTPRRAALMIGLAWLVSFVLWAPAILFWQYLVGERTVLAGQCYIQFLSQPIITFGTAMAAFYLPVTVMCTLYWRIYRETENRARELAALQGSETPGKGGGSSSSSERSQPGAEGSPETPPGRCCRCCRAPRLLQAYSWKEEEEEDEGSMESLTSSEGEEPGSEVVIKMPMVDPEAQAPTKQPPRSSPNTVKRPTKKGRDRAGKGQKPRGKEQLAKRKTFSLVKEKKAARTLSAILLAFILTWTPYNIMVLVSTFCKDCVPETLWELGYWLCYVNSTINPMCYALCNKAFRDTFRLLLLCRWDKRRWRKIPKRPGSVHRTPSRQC
Briefly: Alphascreen Surefire phospho-ERK1/2 functional assay, M1. Conditions: for EC50: phospho-ERK1/2, read-out: pEC50 M1 (converted); for Emax: CHO. The gist of the method:
(§1)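 Agonist-induced phospho-ERK1/2 is measured in serum-starved CHO cells carrying the human receptor, with a 5 min stimulation at 37 °C. AlphaScreen SureFire quantifies the signal, from which pEC50 and Emax are obtained.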

In test [2] the target is T2, human muscarinic M2 receptor (Homo sapiens, UniProt P08172).
T2 sequence (P08172 1-466): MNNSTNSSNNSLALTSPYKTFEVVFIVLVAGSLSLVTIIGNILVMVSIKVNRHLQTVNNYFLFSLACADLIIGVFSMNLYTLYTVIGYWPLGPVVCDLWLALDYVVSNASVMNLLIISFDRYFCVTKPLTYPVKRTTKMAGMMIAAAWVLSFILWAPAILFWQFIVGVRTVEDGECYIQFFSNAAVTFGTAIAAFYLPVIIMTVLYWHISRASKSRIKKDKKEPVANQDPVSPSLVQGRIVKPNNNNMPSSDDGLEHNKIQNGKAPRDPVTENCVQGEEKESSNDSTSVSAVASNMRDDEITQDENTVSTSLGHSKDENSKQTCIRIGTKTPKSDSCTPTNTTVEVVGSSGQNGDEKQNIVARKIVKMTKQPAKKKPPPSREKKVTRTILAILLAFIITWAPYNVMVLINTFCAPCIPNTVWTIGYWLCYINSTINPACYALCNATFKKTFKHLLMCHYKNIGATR
Briefly: Alphascreen Surefire phospho-ERK1/2 functional assay, M2. Conditions: for EC50: CHO cells stably expressing human M2, phospho-ERK1/2, read-out: pEC50 M2 (converted); for Emax: CHO, read-out: M2 % Emax cf. ACh. As for the experimental part: (§2) Functional assays were performed using the Alphascreen Surefire phospho-ERK1/2 assay (Crouch & Osmond, Comb. Chem. High Throughput Screen, 2008). ERK1/2 phosphorylation is a downstream consequence of both Gq/11 and Gi/o protein coupled receptor activation, making it highly suitable for the assessment of M1, M3 (Gq/11 coupled) and M2, M4 receptors (Gi/o coupled), rather than using different assay formats for different receptor subtypes. CHO cells stably expressing the human muscarinic M1, M2, M3 or M4 receptor were plated (25K/well) onto 96-well tissue culture plates in MEM-alpha+10% dialysed FBS. Once adhered, cells were serum-starved overnight. Agonist stimulation was performed by the addition of 5 μL agonist to the cells for 5 min (37° C.). Media was removed and 50 μL of lysis buffer added. After 15 min, a 4 μL sample was transferred to 384-well plate and 7 μL of detection mixture added. Plates were incubated for 2 h with gentle agitation in the dark and then read on a PHERAstar plate reader.
(§3) pEC50 and Emax figures were calculated from the resulting data for each receptor subtype.

Test [3] concerns the target T3, human muscarinic M3 receptor (Homo sapiens, UniProt P20309).
T3 construct: expressed in transfected cells
Description: Alphascreen Surefire phospho-ERK1/2 functional assay, M3. As to conditions: for EC50: CHO cells stably expressing human M3, phospho-ERK1/2, read-out: pEC50 M3 (converted); for Emax: CHO, read-out: M3 % Emax cf. ACh. The procedure:
as §2, §3
On the technique in general: Bead proximity is the source of the signal in Alpha formats.

Test [4] has as its target T4, human muscarinic M4 receptor (Homo sapiens, UniProt P08173).
T4 construct: expressed in transfected cells
T4 sequence (P08173 1-479): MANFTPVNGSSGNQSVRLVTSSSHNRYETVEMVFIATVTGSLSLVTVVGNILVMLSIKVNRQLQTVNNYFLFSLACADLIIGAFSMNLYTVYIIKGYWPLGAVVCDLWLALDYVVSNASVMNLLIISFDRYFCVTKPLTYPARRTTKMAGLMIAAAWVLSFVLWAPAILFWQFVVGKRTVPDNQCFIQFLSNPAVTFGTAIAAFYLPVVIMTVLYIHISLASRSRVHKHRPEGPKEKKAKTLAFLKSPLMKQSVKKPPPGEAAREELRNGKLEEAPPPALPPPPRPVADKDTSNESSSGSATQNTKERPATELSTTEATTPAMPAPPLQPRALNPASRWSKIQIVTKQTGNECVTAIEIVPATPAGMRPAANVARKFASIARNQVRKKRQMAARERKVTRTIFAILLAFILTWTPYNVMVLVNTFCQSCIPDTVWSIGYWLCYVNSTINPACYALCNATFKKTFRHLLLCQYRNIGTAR
Description: Alphascreen Surefire phospho-ERK1/2 functional assay, M4. Conditions: for EC50: phospho-ERK1/2, read-out: pEC50 M4 (converted); for Emax: CHO. The gist of the method:
as §1

Setting [5] is: CHO cells stably expressing human M1.
Setting [6] is: CHO cells stably expressing human M4.
Where [7] appears, read: read-out: M1 % Emax cf. ACh, CHO cells stably expressing human M1, Emax relative to ACh.
The mark [8] stands for this setting: read-out: M4 % Emax cf. ACh, CHO cells stably expressing human M4, Emax relative to ACh.

The structures appear in SMILES notation. Like-named read-outs stand apart in the source and are kept apart here.

T3 sequence (P20309 whole entry): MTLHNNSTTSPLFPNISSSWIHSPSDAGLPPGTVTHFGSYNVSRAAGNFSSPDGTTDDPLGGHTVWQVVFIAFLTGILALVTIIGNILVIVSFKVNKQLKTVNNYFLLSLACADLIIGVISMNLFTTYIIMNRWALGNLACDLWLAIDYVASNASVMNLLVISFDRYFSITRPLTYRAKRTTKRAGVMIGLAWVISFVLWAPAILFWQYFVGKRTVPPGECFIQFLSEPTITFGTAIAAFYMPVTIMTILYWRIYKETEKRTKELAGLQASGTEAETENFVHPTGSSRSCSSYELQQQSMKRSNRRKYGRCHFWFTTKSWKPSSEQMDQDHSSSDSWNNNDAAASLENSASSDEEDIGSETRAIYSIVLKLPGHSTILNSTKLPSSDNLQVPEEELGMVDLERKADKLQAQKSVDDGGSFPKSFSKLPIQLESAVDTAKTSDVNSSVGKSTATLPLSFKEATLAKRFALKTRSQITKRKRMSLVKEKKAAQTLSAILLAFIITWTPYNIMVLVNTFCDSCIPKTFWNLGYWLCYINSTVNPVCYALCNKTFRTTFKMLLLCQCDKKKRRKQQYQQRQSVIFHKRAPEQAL

Usually Emax stands for the maximal effect, on the per cent scale that the assay sets. As to `CCOC(=O)N1CCCN(C2CCC3(CC2)C(=O)Nc2cccc(C)c23)CC1` (single isomer, unassigned) [4-8 isomer 2], the “M1 % Emax cf. ACh” value in test [1] (CHO cells stably expressing human M1, Emax relative to ACh) came to 97%. The EC50 is 204 nM in test [1] (setting [5]), over 20000 nM in test [2], over 20000 nM in test [3] and 97.7 nM in test [4] (setting [6]). The values for the Emax in test [2] and in test [3] were 17% and 9%, respectively. Also, the “M4 % Emax cf. ACh” value in test [4] (CHO cells stably expressing human M4, Emax relative to ACh) was found to be 95%.

Consider `CCOC(=O)N1CCCN(C2CCC3(CC2)C(=O)Nc2ccc(OC)cc23)CC1` (single isomer, unassigned) [4-12 isomer 1], for which the EC50 in test [1] (setting [5]) was 89.1 nM; in test [2], over 20000 nM; in test [3], over 20000 nM; in test [4] (setting [6]), over 20000 nM. Further, the Emax in test [1] (setting [7]) came to 107%; in test [2], 3%; in test [3], 34%; in test [4] (setting [8]), 10%.

Consider `CCOC(=O)N[C@H]1CCN(C2CCC(C#N)(c3cccc(Cl)c3)CC2)C1` (single isomer, unassigned) [1-10 Isomer 2], for which the EC50 in test [1] (setting [5]) is 28.2 nM; in test [2], over 20000 nM; in test [3], over 20000 nM; in test [4] (setting [6]), over 20000 nM. For the same compound, the Emax in test [1] (setting [7]) was 106%; in test [2], 6%; in test [3], 9%; in test [4] (setting [8]), 24%.

Consider `CCOC(=O)N1CCCN(C2CCC(C#N)(c3ccccc3C)CC2)CC1` (mixture of isomers) [3-7 mixture of isomers], for which the EC50 in test [1] (setting [5]) is 389 nM; in test [2], over 20000 nM; in test [3] it was over 20000 nM; in test [4] (setting [6]), 1700 nM. Also, the maximum response (Emax) came to 101% in test [1] (setting [7]), 35% in test [2], 34% in test [3] and 48% in test [4] (setting [8]).

Turning to `CCOC(=O)N(C)[C@@H]1CCN(C2CCC(C#N)(c3ccccc3)CC2)C1` (single isomer, unassigned) [1-21 Isomer 2], the EC50 is 110 nM in test [1] (setting [5]), over 20000 nM in test [2], over 20000 nM in test [3] and over 20000 nM in test [4] (setting [6]). For the same compound, the Emax turned out to be 64% in test [1] (read-out: M1 % Emax cf. ACh), 1% in test [2], 5% in test [3] and 15% in test [4] (read-out: M4 % Emax cf. ACh).

With `CCOC(=O)N[C@H]1CCN(C2CCC3(CC2)C(=O)Nc2cc(C)ccc23)C1` (single isomer, unassigned) [2-4 isomer 1], the EC50 is 66.1 nM in test [1] (setting [5]), over 15800 nM in test [2], over 15800 nM in test [3] and over 15800 nM in test [4] (setting [6]). Also, the Emax stood at 65% in test [1] (setting [7]), 3% in test [2], 11% in test [3] and 11% in test [4] (setting [8]).

Take `CCOC(=O)NCC1CCN(C2CCC(C#N)(c3ccccc3)CC2)CC1` (single isomer, unassigned) [6-2-Isomer 2]: the EC50 in test [1] (setting [5]) is 58.9 nM; in test [2], over 20000 nM; in test [3], over 20000 nM; in test [4] (setting [6]), 53.7 nM. In addition, the Emax in test [1] (setting [7]) is 129%; in test [2], 0%; in test [3] it was 12%; in test [4] (setting [8]) it was 49%.

As for `COc1ccc2c(c1)C1(CCC(N3CCC[C@@H](c4nc(C)no4)C3)CC1)C(=O)N2` (single isomer, unassigned) [22-2 Isomer 1], the EC50 in test [1] (setting [5]) is 70.8 nM; in test [2] it was over 20000 nM; in test [3] it was over 20000 nM; in test [4] (setting [6]) it was 537 nM. Moreover, the Emax was determined as 55% in test [1] (setting [7]), 12% in test [2], 21% in test [3] and 42% in test [4] (setting [8]).

In the case of `CCOC(=O)N[C@H]1CCN(C2CCC(C#N)(c3cccc(C)c3)CC2)C1` (single isomer, unassigned) [1-9 Isomer 2], the EC50 in test [1] (setting [5]) is 27.5 nM; in test [2], over 20000 nM; in test [3] it was over 20000 nM; in test [4] (setting [6]), over 20000 nM. The Emax in test [1] (setting [7]) came out at 99%; in test [2], 6%; in test [3], 2%; in test [4] (setting [8]) it was 12%.

`C#CCOC(=O)N1CCCN(C2CCC(C#N)(c3ccc(OC)cn3)CC2)CC1` (single isomer, unassigned) [3-31 Isomer 1]: the EC50 in test [1] (setting [5]) was 19.5 nM; in test [2] it was over 20000 nM; in test [3] it was over 20000 nM; in test [4] (setting [6]), 2570 nM. Besides, the Emax stood at 91% in test [1] (setting [7]), 8% in test [2], 0% in test [3] and 52% in test [4] (setting [8]).

For `CCOC(=O)N1CCCN(C2CCC(C#N)(c3ccc(OC)cn3)CC2)CC1` (single isomer, unassigned) [3-19 Isomer 2], the EC50 is 30.2 nM in test [1] (setting [5]), over 20000 nM in test [2], over 20000 nM in test [3] and 1740 nM in test [4] (setting [6]). Also, the maximal response (Emax) was 101% in test [1] (setting [7]), 5% in test [2], 6% in test [3] and 39% in test [4] (setting [8]).

As for `CCOC(=O)N1CC2(CCN(C3CCC(C#N)(c4ccccc4)CC3)CC2)C1` (single isomer, unassigned) [11-1 Isomer 2], the EC50 is 275 nM in test [1] (setting [5]), over 20000 nM in test [2], over 20000 nM in test [3] and over 20000 nM in test [4] (setting [6]). Besides, the Emax is 105% in test [1] (setting [7]), 1% in test [2], 3% in test [3] and 19% in test [4] (setting [8]).

For the compound `CCCC(=O)N1CCCN(C2CCC3(CC2)C(=O)Nc2ccccc23)CC1` (single isomer, unassigned) [4-3 isomer 2], the EC50 in test [1] (setting [5]) is 794 nM; in test [2], over 20000 nM; in test [3] it was over 20000 nM; in test [4] (setting [6]), over 20000 nM. Further, the maximum response (Emax) in test [1] (setting [7]) came out at 57%; in test [2], 3%; in test [3], 2%; in test [4] (setting [8]) it was 20%.

With `CC#CCOC(=O)N1CCCN(C2CCC(C#N)(c3ccncc3)CC2)CC1` (single isomer, unassigned) [3-30 Isomer 1], the EC50 is 295 nM in test [1] (setting [5]), over 20000 nM in test [2], over 20000 nM in test [3] and 229 nM in test [4] (setting [6]). In addition, the Emax in test [1] (setting [7]) was found to be 104%; in test [2], 6%; in test [3], 0%; in test [4] (setting [8]) it was 72%.
